Common to all, as to assay type: cell-based
The test system of data set [1] is MDA-MB-231 cells. Description: Cell viability assay, antiproliferative activity. The settings on record: Homo sapiens, MDA-MB-231, 72 h, read-out: Antiproliferative Activity IC50 MDA-MB-231, 72 h. From the text: Selected β-lactam compounds were next evaluated in the triple negative cell line MDA-MB-231 (Table 4). […] These cancers are difficult to treat since they are generally not responsive to hormone therapies such as the selective oestrogen receptor modulator (SERM) tamoxifen, or aromatase inhibitors such as anastrozole, or to the monoclonal antibody Herceptin, which targets the HER2 receptor. There are fewer treatment options available for TNBC compared with ER+, PR+ and HER2+ breast cancers and the prognosis is poorer. […]. The human breast carcinoma cell line MCF-7 was purchased from the European Collection of Animal Cell Cultures (ECACC). Triple negative breast cancer Hs578T cells and its invasive variant Hs578Ts(i)8 were a kind gift from Dr. Susan McDonnell, School of Chemical and Bioprocess Engineering, University College Dublin. U266 cells were a gift from Dr. Tony McElligott, School of Medicine, St James’s Hospital, Trinity College Dublin. HT-29 cells were purchased from the European Collection of Cell Cultures (originating from a human adenocarcinoma of the colon). The human breast carcinoma cell line MDA-MB-231 and the HL-60 cells derived from a patient with acute myeloid leukaemia were both obtained from ECACC (Salisbury, UK). The SW-480 cells were a kind gift from Dr. Brian Flood, School of Biochemistry and Immunology, Trinity College Dublin. HEK-293T (normal epithelial embryonic kidney cells) were cultured in Dulbecco’s Modified Eagle’s Medium (DMEM) with GlutaMAXTM-I in the absence of non-essential amino acids. Human breast cancer MCF-7 cells and multiple myeloma U266 cells were cultured in Minimum Essential Media (MEM) with GlutaMAX™-I, supplemented with 1% (v/v) non-essential amino acids, 10% 2(v/v) foetal bovine serum (FBS) and 1% (v/v) penicillin/streptomycin 5000 U/mL. MDA-MB-231 cells were maintained in DMEM supplemented with 10% (v/v) foetal bovine serum, 2 mM L-glutamine and 100 μg/mL penicillin/streptomycin (complete medium). Colon cancer HT-29 and SW-480 and triple negative breast cancer Hs578T and its invasive variant Hs578T8i were cultured in DMEM with GlutaMAX™-I, with the same supplement in the absence of non-essential amino acids. Leukaemia HL-60 cancer cells were cultured in Roswell Park Memorial Institute Media (RPMI-1640) with GlutaMAX™-I, supplemented with 10% FCS media, and 100 μg/mL penicillin/streptomycin as above. Cell numbers were monitored using a haemocytometer. Cell culture flasks were incubated in a humidified incubator (5% CO2/95% air) at 37 °C. All cell lines were sub-cultured three times per week with trypsinisation using TrypLE Express (1X) required for adherent cell lines.
. All stock solutions and serial dilution in ethanol/DMSO were stored at -20 °C. All cells were seeded at a density of 2.5 × 10^4 cells/mL in a 96-well plate (200 μL per well). The cells were incubated in a […] atmosphere at 37 °C for 24 h, then treated with test compound (2 μL of stock solutions per 200-microlitre well) in ethanol to obtain a concentration range of 1 nM–200 μM for the study. The plates were then re-incubated for a further 72 h. Control wells contained an equivalent volume of the vehicle ethanol or DMSO (1% v/v). MTT cell viability assay: The culture medium was removed, and the cells were washed with phosphate buffered saline (PBS, […]). MTT (dissolved in PBS, […]) was added to obtain a final concentration of MTT (1 mg/mL). Cells were incubated at 37 °C for 3 h in the dark. Solubilisation was commenced by the addition of DMSO ([…]) and the cells were maintained at 20 °C in the dark for 20 min before reading the absorbance to ensure complete colour diffusion. The absorbance value of control cells (no added compound) was set to 100% cell viability and absorbance versus cell density per well was determined to assess cell viability using Graph-Pad Prism software. […]

Data set [2] in a line: NCI 60 cell line screen, full panel. The settings on record: human. The source says:
(§1) The novel 3-haloazetidinone compounds 10e, 11n and 16d were selected by NCI for further biological evaluation in the NCI 60 cell line screen following an initial Tier 1 profiling screen. […]. these values were in the sub-micromolar range for all the cell lines tested except for the breast cancer cell line T-47D, where the progesterone receptors are not regulated by estradiol. […]. [table]

Data set [3] relates to NCI 60 cell line panel. The data set is described as follows: NCI 60 cell line screen, full panel. The settings on record: for GI50: Homo sapiens; for LC50: read-out: LC50 (mean over NCI 60 panel).
Text: as §1

The mark [4] stands for this setting: NCI 60 cancer cell line panel (mean over the panel), NCI 60 panel mean, read-out: LC50 (mean over NCI 60 panel).
Where [5] appears, read: 60 cell, NCI 60 panel mean, read-out: GI50 (mean over NCI 60 panel).
Where [6] appears, read: 60 cell, NCI 60 panel mean, read-out: MID GI50 (full panel mean-graph mid-point).

Read-outs that look alike come from different tables or passages of the source.

As to `COc1ccc([C@H]2[C@H](Cl)C(=O)N2c2cc(OC)c(OC)c(OC)c2)cc1` (relative stereo) [Compound 10e trans, Trans-3-chloro-1-(3,4,5-trimethoxyphenyl)-4-(4-methoxyphenyl) azetidin-2-one], in data set [1] (10e and 11n results from NCI), the concentration for half-maximal inhibition (IC50) worked out at 68.6 nM. Further, the 50% lethal concentration (LC50) in data set [2] (setting [4]) is 81300 nM; in data set [2] (NCI 60 cancer cell line panel, individual cell lines, all but one cell line for 10e, all but four cell lines for 11n, read-out: LC50 in individual cell lines), over 100000 nM; in data set [3] (NCI 60 panel mean, listed as 10e), 91200 nM. Moreover, the 50% growth inhibitory concentration (GI50) in data set [3] (setting [5]) and in data set [3] (setting [6]) was 74.1 nM throughout.
For `COc1ccc(/C=C\c2cc(OC)c(OC)c(OC)c2)cc1O` [CA-4, Combretastatin A-4], the IC50 in data set [1] (10e and 11n results from NCI) is 43 nM. Besides, the GI50 in data set [3] (setting [5]) was found to be 99 nM. For the same molecule, the “TGI (mean over NCI 60 panel)” value in data set [3] (NCI 60 panel mean) was 10300 nM.
Take `COc1ccc(C2N(c3cc(OC)c(OC)c(OC)c3)C(=O)C2(Cl)Cl)cc1O` (stereo not drawn) [Compound 11n, 3,3-Dichloro-4-(3-hydroxy-4-methoxyphenyl)-1-(3,4,5-trimethoxyphenyl)azetidin-2-one]: the IC50 in data set [1] amounted to 31.6 nM. Further, the median lethal concentration (LC50) in data set [2] (NCI 60 panel mean, read-out: LC50 (mean over NCI 60 panel)) was 91200 nM; in data set [2] (all but one cell line for 10e, all but four cell lines for 11n, read-out: LC50 in individual cell lines), over 100000 nM; in data set [3] (NCI 60 panel mean), 83200 nM. Besides, the GI50 in data set [3] (60 cell, read-out: GI50 (mean over NCI 60 panel), NCI 60 panel mean) is 53.7 nM; in data set [3] (60 cell, read-out: GI50 in individual cell lines, 43 of the cell lines investigated), under 100 nM; in data set [3] (60 cell, read-out: GI50 value, CNS cancer cell lines), 19.9 to 51.4 nM; in data set [3] (60 cell, read-out: GI50 value, non-small cell lung cancer cell lines), 16.4 to 46.4 nM; in data set [3] (60 cell, read-out: GI50 value, prostate cancer cell lines), 35.3 to 35.9 nM; in data set [3] (60 cell, read-out: MID GI50 (full panel mean-graph mid-point), NCI 60 panel mean) it was 53.7 nM. For the same molecule, the GI50 in data set [3] (read-out: GI50 value, breast cancer cell lines apart from T-47D) fell in the range of 22.6 to 42.8 nM. Besides, the “TGI (mean over NCI 60 panel)” value in data set [3] (NCI 60 panel mean) was 10000 nM.
Regarding `CCSc1ccc(C2C(Br)C(=O)N2c2cc(OC)c(OC)c(OC)c2)cc1` (stereo not drawn) [Compound 16d, 3-Bromo-4-(4-(ethylthio)phenyl)-1-(3,4,5-trimethoxyphenyl)azetidin-2-one], the 50% lethal concentration (LC50) was 83200 nM in data set [2] (setting [4]) and 81300 nM in data set [3] (NCI 60 panel mean). Also, the GI50 in data set [3] (setting [6]) worked out at 407 nM.

Source of the values: paper PMC8624998, “Synthesis and Antiproliferative Evaluation of 3-Chloroazetidin-2-ones with Antimitotic Activity: Heterocyclic Bridged Analogues of Combretastatin A-4” (Pharmaceuticals, 2021).
